Results as given in article PMC3728097 (PLoS ONE, 2013).
Entries after “also recorded” stand apart in the source; their conditions may differ.

Key:
[1] = biological target: α7 nAChRs in the monkey brain (Macaca mulatta, UniProt Q866A2); format: in vivo; settings: monkey SPECT, pretreatment SSR180711 5.0 mg/kg i.v.
Protocol: Four monkeys (male, 7 year olds, 8 kg) were selected for SPECT imaging. Immediately after HPLC column purification, 50 µg (74 MBq) of the ^131I-CHIBA-1001 in 2 mL of normal saline were injected into the monkeys via intravenous administration after administration of saline (control) or SSR180711 (5.0 mg/kg, i.v.). […] At 0.5, 1.5, and 2 h after injection, imaging was performed in the Department of Nuclear Medicine, Peking University First Hospital, using SPECT (SPR SPECT; GE Healthcare, Inc.) equipped with a high-energy general purpose (HEGP) collimator. Static images (200,000 counts), obtained with a zoom factor of 2.0, were digitally stored in a 64 × 64 matrix.

[2] = biological target: T1, α7 nAChRs in the rat brain (Rattus norvegicus, UniProt Q05941); assay: In vitro saturation binding assay of ^125I-CHIBA-1001 in rat brain membranes; settings: 4°C, n = 5, mean ± S.E.M.
T1 construct: aliquots of a membrane suspension (200 µl), ^125I-CHIBA-1001 and the indicated concentrations of test drug; from tissue; host or cells: rat brain membranes (Sprague Dawley)
Protocol: Male SD (Sprague Dawley) rats (8–10 week olds, 180–200 g) were used for the experiments. After sacrificing the rats by decapitation, the brains were rapidly removed from the skulls.
The tissues of each brain region were homogenized in 15 volumes of 50 mM Tris–HCl buffer (120 mM NaCl, 2 mM KCl, 1 mM CaCl2, 1 mM MgCl 2, pH 7.4 at 4°C) using a Polytron homogenizer at setting No. 5 for 30s on ice. The membranes were centrifuged in 50 ml polypropylene tube at 48,000 g for 20 min at 4°C. The supernatant was discarded and the pellet re-suspended, homogenized and centrifuged as above. The membrane pellet was washed and re-suspended in ice-cold buffer and was then centrifuged two more times. The final pellet was re-suspended in 10 volumes of the same buffer.
Assays of the binding of ^125I-CHIBA-1001 to α7 nAChRs in the rat brain were performed according to the method published previously [21], [22]. The reaction mixtures were consisted of aliquots of a membrane suspension (200 µl), ^125I-CHIBA-1001 and the indicated concentrations of test drug in a final volume of 0.5 ml in duplicate. Non-specific binding was estimated in the presence of 30 µM SSR180711. Binding reaction was conducted for 150 min at 4°C for the equilibrium saturation and inhibition studies.

α7 nAChRs = settings: cited from earlier work
[3] = blocked cerebellum as nonspecific binding

α7 nAChRs in the monkey brain, sequence (Q866A2 23-502): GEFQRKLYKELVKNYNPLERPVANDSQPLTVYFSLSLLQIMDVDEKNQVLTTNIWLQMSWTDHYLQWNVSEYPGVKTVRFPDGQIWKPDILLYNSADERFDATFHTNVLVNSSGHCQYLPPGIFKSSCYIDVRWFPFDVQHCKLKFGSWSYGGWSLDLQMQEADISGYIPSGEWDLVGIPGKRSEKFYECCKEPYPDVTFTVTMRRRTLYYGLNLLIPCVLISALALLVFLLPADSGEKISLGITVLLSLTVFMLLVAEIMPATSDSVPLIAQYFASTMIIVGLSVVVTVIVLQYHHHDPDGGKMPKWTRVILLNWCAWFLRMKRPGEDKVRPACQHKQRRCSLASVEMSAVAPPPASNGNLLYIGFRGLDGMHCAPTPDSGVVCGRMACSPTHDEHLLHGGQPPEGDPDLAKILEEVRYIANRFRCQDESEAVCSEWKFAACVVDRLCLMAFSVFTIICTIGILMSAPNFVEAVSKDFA
T1 sequence (Q05941 23-502): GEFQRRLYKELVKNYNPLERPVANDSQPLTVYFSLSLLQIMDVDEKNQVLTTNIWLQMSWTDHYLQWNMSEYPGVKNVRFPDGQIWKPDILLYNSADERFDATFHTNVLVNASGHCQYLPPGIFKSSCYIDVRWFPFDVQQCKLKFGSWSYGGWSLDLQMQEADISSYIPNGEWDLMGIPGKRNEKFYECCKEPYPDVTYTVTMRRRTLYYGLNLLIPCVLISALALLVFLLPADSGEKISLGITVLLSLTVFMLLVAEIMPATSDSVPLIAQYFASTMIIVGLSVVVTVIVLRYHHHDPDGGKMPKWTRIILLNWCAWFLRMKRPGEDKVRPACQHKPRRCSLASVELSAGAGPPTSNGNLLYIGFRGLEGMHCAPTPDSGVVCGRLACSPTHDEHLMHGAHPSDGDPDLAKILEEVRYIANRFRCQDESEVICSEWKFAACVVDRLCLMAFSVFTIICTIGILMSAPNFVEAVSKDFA

Molecule: O=C(Oc1ccc(Br)cc1)N1CCN2CCC1CC2 [SSR180711]
- blockade of ^131I-CHIBA-1001 uptake in the cerebellum [1]: minimal
- effect of pretreatment on uptake of ^131I-CHIBA-1001 radioactivity in the brain [1]: blocked the radioactive uptake in the brain successfully; also recorded: decreased
- decrease of specific binding of ^131I-CHIBA-1001 in the frontal cortex [1, 3]: 38.5±2.1%
- decrease of specific binding of ^131I-CHIBA-1001 in the thalamus [1, 3]: 35.7±2.8%

Molecule: O=C(Oc1ccc(I)cc1)N1CCN2CCC1CC2 [^125I-CHIBA-1001]
- Kd ([2]; read-out: apparent Kd): 0.0819 ± 0.00795 µM

Molecule: O=C(Oc1ccc([125I])cc1)N1CCN2CCC1CC2 [^125I-CHIBA-1001]
- B max [2]: 63.97±17.45 fmol/mg protein

Molecule: [^125I]methyllycaconitine [^125I-MLA]
- Kd (α7 nAChRs): 0.0018 µM
